Measured values: publication PMC8909834, “An Orally Bioavailable and Highly Efficacious Inhibitor of CDK9/FLT3 for the Treatment of Acute Myeloid Leukemia” (Cancers, 2022)

Legend:
FLT3-D835Y = FLT3-D835Y (Homo sapiens, UniProt P36888, D835Y); assay: ADP Glo kinase assay; format: biochemical; conditions: calculated from IC50 using the Cheng-Prusoff equation
Description: (§1) Kinase assay. The ADP Glo^TM kinase assay (Promega, Madison, WI, USA) was used to assess the inhibition by CDDD11-8 of CDKs 1, 2, 4, 6, 7, and 9, as well as the mutant isoforms of FLT3. The assays were performed in accord with the manufacturer’s protocol (Promega) as described previously. Briefly, serial three-fold dilutions of CDDD11-8 were prepared in 100% DMSO from a 2 mM stock solution, followed by 1:40 dilution into Milli-Q water. Subsequently, 1 µL of each sample was incubated with 4 µL of kinase mixture containing a particular CDK enzyme and its substrate, standard kinase buffer [3 mM MgCl2, 50 mM HEPES-NaOH pH 7.5, 3 mM MnCl2, 3 µM Na-orthovanadate, 1 mM dithiothreitol (DTT)], kinase dilution buffer (containing 0.25 mg/mL PEG20,000, 50 mM HEPES-NaOH pH 7.5, 1 mM DTT), and ATP at 37 °C for 30 to 40 min. The final reaction mixture contained 0.5% DMSO in all samples, and the applied kinase concentrations were 1, 1, 10, 40, 20, and 50 nM for CDK1, 2, 4, 6, 7, and 9, respectively. The reaction was stopped by adding ADP-Glo reagent and the mixture was incubated further in the dark at room temperature for 40 min. As a final step, kinase detection reagent was added to each mixture and incubated at room temperature for 30 to 60 min. Luminescence was read using an EnVision® multilabel plate reader (PerkinElmer, Beaconsfield, UK), and half-maximum inhibitory concentrations (IC50) were calculated using a non-linear regression model with a variable slope, plotting log (inhibitor concentration) vs. response using the following formula: Ar%=Bottom+Top−Bottom/1+Inhibitor Concentration/IC50^HillSlope where the relative activity Ar (%) is the signal relative to the controls, IC50 is the half maximum concentration, Hillslope is the steepness of the dose-response curve, Top and Bottom are plateaus reflecting the maximum and minimum in responses on the Y-axis (GraphPad Prism version 7, San Diego, CA, USA). Ki values were calculated from the IC50 using the Cheng−Prusoff equation [32]. Extensive specificity assessment was carried out by Reaction Biology Corporation (Malvern, PA, USA) with 369 kinases using 1 µM CDDD11-8 concentration in a Kinase Hotspot radiolabel assay (for experimental details, please see (Reaction Biology https://www.reactionbiology.com/). Subsequently, Ki values were determined for kinases with greater than 90% inhibition.

FLT3 = target: T1, FLT3 (Homo sapiens, UniProt P36888); assay: ADP Glo kinase assay; format: biochemical; conditions: calculated from IC50 using the Cheng-Prusoff equation
T1 construct: purchased Reaction Biology Corporation (Kinase HotSpot)
Description: as §1

CDK1B = CDK1B (Homo sapiens, UniProt P06493); assay: ADP Glo kinase assay; format: biochemical; conditions: calculated from IC50 using the Cheng-Prusoff equation
Sequence of CDK1B (P06493 whole entry): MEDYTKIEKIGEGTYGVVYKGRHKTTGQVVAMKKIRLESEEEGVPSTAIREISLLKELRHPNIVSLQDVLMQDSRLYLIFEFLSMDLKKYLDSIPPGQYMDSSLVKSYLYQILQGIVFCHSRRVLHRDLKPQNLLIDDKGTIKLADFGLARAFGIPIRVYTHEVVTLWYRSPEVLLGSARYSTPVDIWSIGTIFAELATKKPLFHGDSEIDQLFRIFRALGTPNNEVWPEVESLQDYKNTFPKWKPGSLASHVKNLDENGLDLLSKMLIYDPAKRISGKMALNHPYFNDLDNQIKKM
Sequence of CDK1B (P14635 whole entry partner): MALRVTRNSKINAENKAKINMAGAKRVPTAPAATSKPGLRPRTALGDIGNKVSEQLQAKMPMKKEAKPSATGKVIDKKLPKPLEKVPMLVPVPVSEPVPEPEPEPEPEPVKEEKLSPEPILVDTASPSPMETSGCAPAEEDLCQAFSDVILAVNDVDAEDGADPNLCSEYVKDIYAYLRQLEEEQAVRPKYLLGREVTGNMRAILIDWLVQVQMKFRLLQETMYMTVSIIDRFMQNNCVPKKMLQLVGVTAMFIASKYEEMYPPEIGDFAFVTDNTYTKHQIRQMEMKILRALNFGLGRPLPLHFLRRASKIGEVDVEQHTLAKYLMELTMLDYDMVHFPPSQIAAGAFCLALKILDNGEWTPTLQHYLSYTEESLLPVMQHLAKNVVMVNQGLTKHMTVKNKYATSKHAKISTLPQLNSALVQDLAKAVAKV
Description: as §1

FLT3-ITD = FLT3-ITD (Homo sapiens, UniProt P36888, ITD); assay: ADP Glo kinase assay; format: biochemical; conditions: calculated from IC50 using the Cheng-Prusoff equation
Description: as §1

CDK6D3 = CDK6D3 (Homo sapiens, UniProt Q00534); assay: ADP Glo kinase assay; format: biochemical; conditions: calculated from IC50 using the Cheng-Prusoff equation
Sequence of CDK6D3 (Q00534 whole entry): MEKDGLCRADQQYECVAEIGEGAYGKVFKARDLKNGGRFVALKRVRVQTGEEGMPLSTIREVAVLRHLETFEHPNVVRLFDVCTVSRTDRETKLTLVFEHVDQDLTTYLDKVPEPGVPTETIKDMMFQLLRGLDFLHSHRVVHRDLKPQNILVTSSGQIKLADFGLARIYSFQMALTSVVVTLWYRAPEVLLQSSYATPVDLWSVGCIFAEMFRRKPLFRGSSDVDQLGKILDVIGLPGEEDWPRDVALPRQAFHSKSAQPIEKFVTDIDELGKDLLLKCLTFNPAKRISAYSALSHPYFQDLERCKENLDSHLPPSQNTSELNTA
Sequence of CDK6D3 (P30281 whole entry partner): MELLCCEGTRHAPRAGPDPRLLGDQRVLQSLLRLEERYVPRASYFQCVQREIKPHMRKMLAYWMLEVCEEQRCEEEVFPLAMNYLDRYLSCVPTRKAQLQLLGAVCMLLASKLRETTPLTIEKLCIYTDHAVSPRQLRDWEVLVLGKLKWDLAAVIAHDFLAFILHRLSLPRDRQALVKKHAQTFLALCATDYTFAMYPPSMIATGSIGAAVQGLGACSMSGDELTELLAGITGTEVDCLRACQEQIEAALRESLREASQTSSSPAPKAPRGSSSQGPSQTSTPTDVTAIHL
Description: as §1

CDK4D1 = CDK4D1 (Homo sapiens, UniProt P11802); assay: ADP Glo kinase assay; format: biochemical; conditions: calculated from IC50 using the Cheng-Prusoff equation
Description: as §1

MOLM-13 cells [1] = assay: Cell cycle analysis (PI, flow cytometry); format: cell-based; conditions: MOLM-13, 1 µM, 24 h
Description: (§2) Detection of apoptosis and cell cycle analysis. Detection of apoptosis and cell cycle analysis were performed as described previously. Cells (1 × 10^5 cells/mL) were seeded into a six-well plate (Corning) and incubated overnight at 37 °C, 5% CO2 prior to incubation with different concentrations of CDDD11-8 or control (0.1% final DMSO concentration) for 6, 24, or 72 h. For washout experiments, cells were incubated with compounds for 6 h, then washed three times with 1 × PBS interspersed with centrifugation at 300× g for 5 min to remove compound. After incubation at 37 °C under 5% CO2, cells were centrifuged at 300× g for 5 min to form a pellet, washed with PBS, and incubated with Annexin V/PI (Becton Dickenson, Franklin Lakes, NJ, USA) for 15 min in the dark. For cell cycle analysis, cells were fixed with 70% ethanol (v/v, 4 °C) and incubated in the dark with cell cycle staining solution (50 µg/mL PI, 0.1 mg/mL RNase A, 0.05% Triton X-100) for 1.5 h. Samples were analyzed using a CytoFlex flow cytometer (Beckman Coulter, Brea, CA, USA). Data were analyzed with CytExpert software version 2.1 (Beckman Coulter, Brea, CA, USA).

MV4-11 cells [2] = assay: Cell cycle analysis (PI, flow cytometry); format: cell-based; conditions: 24 h
Description: as §2

[3] = Partition coefficient by shake flask assay; format: physicochemical; conditions: octanol/aqueous phase, pH 7.4, read-out: Partition Coefficient LogD7.4 (octanol)
MST1 = target: T2, MST1 (Homo sapiens, UniProt Q13043); assay: Ki determination for kinases with greater than 90% inhibition (Reaction Biology); format: biochemical; conditions: calculated from IC50 using the Cheng-Prusoff equation
T2 construct: purchased Reaction Biology Corporation (contract assay)
T2 sequence (Q13043 whole entry): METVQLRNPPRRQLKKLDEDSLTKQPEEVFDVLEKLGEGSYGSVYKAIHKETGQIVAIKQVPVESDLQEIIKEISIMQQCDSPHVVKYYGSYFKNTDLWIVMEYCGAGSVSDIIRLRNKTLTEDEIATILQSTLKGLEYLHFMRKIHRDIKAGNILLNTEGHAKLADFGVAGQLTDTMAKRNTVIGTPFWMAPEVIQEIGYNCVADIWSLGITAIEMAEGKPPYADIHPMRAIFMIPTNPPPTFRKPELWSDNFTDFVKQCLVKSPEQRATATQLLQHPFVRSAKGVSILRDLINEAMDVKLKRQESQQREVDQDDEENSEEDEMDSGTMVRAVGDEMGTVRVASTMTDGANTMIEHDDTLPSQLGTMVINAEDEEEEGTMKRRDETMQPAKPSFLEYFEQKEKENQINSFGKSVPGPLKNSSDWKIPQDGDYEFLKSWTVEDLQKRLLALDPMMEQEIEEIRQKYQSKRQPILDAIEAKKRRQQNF
Description: as §1

TNIK = target: T3, TNIK (Homo sapiens, UniProt Q9UKE5); assay: as above; format: biochemical; conditions: calculated from IC50 using the Cheng-Prusoff equation
T3 construct: purchased Reaction Biology Corporation (Kinase HotSpot)
Description: as §1

NUAK1 = target: T4, NUAK1 (Homo sapiens, UniProt O60285); assay: as above; format: biochemical; conditions: calculated from IC50 using the Cheng-Prusoff equation
T4 construct: purchased Reaction Biology Corporation (contract assay)
T4 sequence (O60285 whole entry): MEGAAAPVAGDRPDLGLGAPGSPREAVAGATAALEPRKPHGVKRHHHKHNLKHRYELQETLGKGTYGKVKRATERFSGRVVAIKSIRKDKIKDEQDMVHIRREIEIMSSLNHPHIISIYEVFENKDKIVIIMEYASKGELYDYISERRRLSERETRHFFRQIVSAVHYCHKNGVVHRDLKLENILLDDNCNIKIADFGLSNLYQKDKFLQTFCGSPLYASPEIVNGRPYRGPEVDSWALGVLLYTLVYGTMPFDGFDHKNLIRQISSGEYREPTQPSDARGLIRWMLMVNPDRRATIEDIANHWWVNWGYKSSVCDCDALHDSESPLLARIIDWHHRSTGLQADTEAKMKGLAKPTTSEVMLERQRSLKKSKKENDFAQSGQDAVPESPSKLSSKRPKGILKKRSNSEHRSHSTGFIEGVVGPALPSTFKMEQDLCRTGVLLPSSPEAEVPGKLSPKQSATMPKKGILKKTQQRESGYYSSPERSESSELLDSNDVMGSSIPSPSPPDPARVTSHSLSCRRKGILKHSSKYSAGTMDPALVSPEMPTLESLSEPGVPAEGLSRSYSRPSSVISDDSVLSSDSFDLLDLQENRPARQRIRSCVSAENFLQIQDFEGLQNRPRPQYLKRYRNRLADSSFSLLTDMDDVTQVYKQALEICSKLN
Description: as §1

TRKC = target: T5, TRKC (Homo sapiens, UniProt Q16288); assay: as above; format: biochemical; conditions: calculated from IC50 using the Cheng-Prusoff equation
T5 construct: purchased Reaction Biology Corporation (contract assay)
T5 sequence (Q16288 32-839): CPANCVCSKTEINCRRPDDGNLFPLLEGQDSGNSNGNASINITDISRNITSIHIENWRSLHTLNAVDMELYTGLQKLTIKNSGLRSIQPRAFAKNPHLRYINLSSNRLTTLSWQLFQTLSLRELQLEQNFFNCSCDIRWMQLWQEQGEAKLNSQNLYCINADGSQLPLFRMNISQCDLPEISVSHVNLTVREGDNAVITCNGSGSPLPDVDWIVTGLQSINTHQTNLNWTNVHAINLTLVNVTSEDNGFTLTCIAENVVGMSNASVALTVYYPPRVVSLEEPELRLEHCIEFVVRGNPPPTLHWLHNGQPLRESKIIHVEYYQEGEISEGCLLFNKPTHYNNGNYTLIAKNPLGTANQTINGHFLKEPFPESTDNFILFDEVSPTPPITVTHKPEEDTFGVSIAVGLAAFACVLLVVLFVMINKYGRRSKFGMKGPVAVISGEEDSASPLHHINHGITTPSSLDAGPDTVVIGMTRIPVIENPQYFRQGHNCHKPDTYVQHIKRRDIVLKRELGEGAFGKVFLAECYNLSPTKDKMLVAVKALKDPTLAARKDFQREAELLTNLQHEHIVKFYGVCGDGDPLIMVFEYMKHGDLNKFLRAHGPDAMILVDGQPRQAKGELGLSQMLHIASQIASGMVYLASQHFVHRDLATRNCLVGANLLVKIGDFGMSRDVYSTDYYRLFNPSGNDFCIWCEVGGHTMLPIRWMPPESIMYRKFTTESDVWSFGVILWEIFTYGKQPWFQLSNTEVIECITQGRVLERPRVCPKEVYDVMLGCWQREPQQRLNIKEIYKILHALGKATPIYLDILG
Description: as §1

MINK = target: T6, MINK (Homo sapiens, UniProt Q8N4C8); assay: as above; format: biochemical; conditions: calculated from IC50 using the Cheng-Prusoff equation
T6 construct: purchased Reaction Biology Corporation (contract assay)
T6 sequence (Q8N4C8 whole entry): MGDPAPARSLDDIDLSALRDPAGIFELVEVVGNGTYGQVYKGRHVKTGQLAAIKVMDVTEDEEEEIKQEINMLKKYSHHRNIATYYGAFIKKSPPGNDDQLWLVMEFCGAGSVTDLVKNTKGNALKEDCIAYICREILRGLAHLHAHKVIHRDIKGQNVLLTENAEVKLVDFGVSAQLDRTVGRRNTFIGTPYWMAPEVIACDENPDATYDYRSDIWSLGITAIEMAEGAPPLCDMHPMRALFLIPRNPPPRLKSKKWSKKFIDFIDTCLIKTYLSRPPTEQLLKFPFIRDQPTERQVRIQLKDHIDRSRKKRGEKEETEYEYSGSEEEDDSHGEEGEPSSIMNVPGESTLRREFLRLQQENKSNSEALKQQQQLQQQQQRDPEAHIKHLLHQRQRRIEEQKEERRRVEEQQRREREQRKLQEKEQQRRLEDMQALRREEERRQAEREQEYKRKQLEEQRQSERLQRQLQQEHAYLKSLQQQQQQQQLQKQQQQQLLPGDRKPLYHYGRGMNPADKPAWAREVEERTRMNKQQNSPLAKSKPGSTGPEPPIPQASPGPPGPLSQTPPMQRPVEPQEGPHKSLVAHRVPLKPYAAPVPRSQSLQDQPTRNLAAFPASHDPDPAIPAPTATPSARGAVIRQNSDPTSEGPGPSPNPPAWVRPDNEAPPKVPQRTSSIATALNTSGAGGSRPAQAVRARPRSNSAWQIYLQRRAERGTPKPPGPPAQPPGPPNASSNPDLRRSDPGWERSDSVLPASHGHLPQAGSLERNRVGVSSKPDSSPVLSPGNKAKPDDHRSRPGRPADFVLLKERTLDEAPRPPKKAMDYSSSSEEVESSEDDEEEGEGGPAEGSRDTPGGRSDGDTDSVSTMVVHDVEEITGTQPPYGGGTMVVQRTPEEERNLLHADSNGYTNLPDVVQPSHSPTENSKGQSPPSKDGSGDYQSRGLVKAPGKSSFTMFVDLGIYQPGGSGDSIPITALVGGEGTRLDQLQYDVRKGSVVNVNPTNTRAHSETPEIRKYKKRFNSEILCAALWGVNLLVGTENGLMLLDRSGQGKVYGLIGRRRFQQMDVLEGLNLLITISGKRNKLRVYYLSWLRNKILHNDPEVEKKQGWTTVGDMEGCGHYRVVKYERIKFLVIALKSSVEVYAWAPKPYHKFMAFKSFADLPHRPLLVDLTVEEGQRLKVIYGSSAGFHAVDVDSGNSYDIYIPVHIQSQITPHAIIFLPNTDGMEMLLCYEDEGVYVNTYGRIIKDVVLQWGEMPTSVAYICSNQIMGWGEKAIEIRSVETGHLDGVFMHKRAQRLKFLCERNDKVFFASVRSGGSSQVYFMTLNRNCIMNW
Description: as §1

GLK = target: T7, GLK (Homo sapiens, UniProt Q8IVH8); assay: as above; format: biochemical; conditions: calculated from IC50 using the Cheng-Prusoff equation
T7 construct: purchased Reaction Biology Corporation (contract assay)
Description: as §1

[4] = Dissociation constant by PH metric assay; format: physicochemical
[5] = Aqueous solubility by turbidimetric method; format: physicochemical; conditions: aqueous medium (not further specified), kinetic from dmso stock
MOLM-13 cells [6] = assay: Detection of apoptosis (annexin V/PI assay); format: cell-based; conditions: MOLM-13, 1 µM
Description: as §2

MV4-11 cells [7] = assay: Detection of apoptosis (annexin V/PI assay); format: cell-based; conditions: MV4-11, 1 µM
Description: as §2

THP-1 cells = assay: Detection of apoptosis (annexin V/PI assay); format: cell-based; conditions: apoptosis seen at 1.5 µM and 24 and 72 h
Description: as §2

What does the source list for `Cc1cnc(N[C@H]2CC[C@H](N)CC2)nc1-c1cnc2ccc(-c3ccccc3)cn12` [CDDD11-8]?
Ki (FLT3-D835Y): 7 nM; Ki (FLT3): 46 nM; Ki (CDK1B): > 1000 nM; Ki (FLT3-ITD): 13 nM; Ki (CDK6D3): > 1000 nM; Ki (CDK4D1): > 1000 nM; increase of sub-G1 cell population (MOLM-13 cells [1]): greater than 40 fold; increase in the G1 population (increment) (MV4-11 cells [2]; MV4-11, 0.3 µM): 16%; increase of sub-G1 cell population (MV4-11 cells [2]; MV4-11, 1 µM): greater than 40 fold; logD [3]: 1.87; Ki (MST1): 9 nM; Ki (TNIK): 3 nM; Ki (NUAK1): 12 nM; Ki (TRKC): 10 nM; Ki (MINK): 14 nM; Ki (GLK): 28 nM; pKa ([4]; first of three values): 2.75; pKa ([4]; second of three values): 4.95; pKa ([4]; third of three values): 9.89; solubility [5]: > 100 µM; apoptotic (Annexin V-positive) cells (MOLM-13 cells [6]; 6 h): 86%; apoptotic cells after washout (MOLM-13 cells [6]; 6 h then 24 h without compound): 61%; apoptotic (Annexin V-positive) cells (MV4-11 cells [7]; 6 h): 51%; apoptotic cells after washout (MV4-11 cells [7]; 6 h then 24 h without compound): 28%; induction of apoptosis (THP-1 cells): less impact
